In assay [1] the target is Free fatty acid receptor 1 (Homo sapiens, UniProt O14842). Briefly: Agonist activity at GPR40 (unknown origin) expressed in CHO cells co-expressing luc2P/SRE assessed as firefly luciferase activity at 10 uM incubated for 24 hrs hrs by Bright-Glo based serum response element (SRE) luciferase reporter assay relative to TAK875. In kind it is functional, cell-based.
Assay [2] addresses T1, Peroxisome proliferator-activated receptor gamma (Homo sapiens) (UniProt P37231).
T1 sequence (whole entry): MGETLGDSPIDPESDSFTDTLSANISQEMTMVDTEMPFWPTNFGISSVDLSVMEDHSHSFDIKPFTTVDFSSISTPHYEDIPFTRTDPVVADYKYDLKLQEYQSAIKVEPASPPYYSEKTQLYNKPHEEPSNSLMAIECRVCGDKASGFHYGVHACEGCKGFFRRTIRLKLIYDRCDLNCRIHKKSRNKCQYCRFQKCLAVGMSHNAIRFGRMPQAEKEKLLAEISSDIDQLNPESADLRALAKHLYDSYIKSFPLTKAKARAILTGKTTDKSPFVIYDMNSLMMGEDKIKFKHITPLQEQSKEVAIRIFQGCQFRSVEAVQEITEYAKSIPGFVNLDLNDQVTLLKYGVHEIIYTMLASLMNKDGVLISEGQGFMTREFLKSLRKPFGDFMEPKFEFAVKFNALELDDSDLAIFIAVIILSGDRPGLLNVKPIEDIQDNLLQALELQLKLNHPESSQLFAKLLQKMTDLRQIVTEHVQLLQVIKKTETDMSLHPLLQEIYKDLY
The assay can be described thus: Agonist activity at human PPARgamma expressed in CHO cells assessed as increase in receptor transcriptional activity at 1 uM incubated for 24 hrs by dual luciferase reporter gene assay relative to rosiglitazone. In kind it is cell-based.

The target in assay [3] is T2, Peroxisome proliferator-activated receptor gamma (Homo sapiens, UniProt P37231).
T2 sequence (P37231 whole entry): T1 sequence (whole entry)
Briefly: Agonist activity at human PPARgamma expressed in CHO cells assessed as increase in receptor transcriptional activity incubated for 24 hrs by dual luciferase reporter gene assay. In kind it is cell-based.

Assay [4] deals with STC1. The assay can be described thus: Induction of GLP-1 secretion in […] STC1 cells at 100 uM after 1 hrs by ELISA. In kind it is functional, cell-based.

The source made the active and inactive calls. The calls are words filed in the database; no cut-off is given here.

Free fatty acid receptor 1, sequence (O14842 whole entry): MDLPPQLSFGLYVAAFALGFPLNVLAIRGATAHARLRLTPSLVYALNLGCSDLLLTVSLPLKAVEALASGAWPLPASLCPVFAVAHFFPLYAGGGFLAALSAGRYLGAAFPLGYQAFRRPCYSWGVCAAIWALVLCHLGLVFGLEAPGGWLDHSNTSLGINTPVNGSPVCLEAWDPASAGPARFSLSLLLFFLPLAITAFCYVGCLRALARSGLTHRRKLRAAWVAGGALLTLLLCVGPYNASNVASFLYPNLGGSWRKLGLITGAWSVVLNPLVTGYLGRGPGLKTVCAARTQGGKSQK

On to `Cc1cc(Br)ccc1-c1cc2cc(CCC(=O)O)ccc2[nH]1`, for which the Emax was determined as 95.3% in assay [1] (filed as agonist) and 30.6% in assay [2].

Turning to `Cc1c(Cl)cccc1-c1cc2cc(CCC(=O)O)ccc2[nH]1`, the Emax in assay [1] (filed as agonist) turned out to be 109%. The EC50 result in assay [3] (cho) was “Not Active”.

With `O=C(O)CCc1ccc2[nH]c(-c3ccc(Cl)cc3Cl)cc2c1`, the Emax turned out to be 48% in assay [1] (filed as agonist) and 5.39% in assay [2].

Consider `O=C(O)CCc1ccc2[nH]c(-c3ccncc3Cl)cc2c1`, for which the Emax is 24.7% in assay [1] and 0.19% in assay [2].

Consider `Cc1cccc(C)c1-c1cc2cc(CCC(=O)O)ccc2[nH]1`, for which the Emax was 69.5% in assay [1] (filed as agonist) and 0.52% in assay [2].

Consider `Cc1ccc(-c2cc3cc(CCC(=O)O)ccc3[nH]2)c(C)c1`, for which the results for the Emax in assay [1] (filed as agonist) and in assay [2] were 61.8% and 2.51%, respectively.

For the compound `O=C(O)CCc1ccc2[nH]c(-c3cccc(Cl)c3F)cc2c1`, the Emax in assay [1] turned out to be 6.81%; in assay [2] it was 18.2%.

As for `CCCCC/C=C\C/C=C\CCCCCCCC(=O)O`, the outcome in assay [4] was Active.

Take `Cc1cc(Cl)ccc1-c1cc2cc(CCC(=O)O)ccc2[nH]1`: the values for the Emax in assay [1] (filed as agonist) and in assay [2] (filed as agonist) were 109% and 104%, respectively. The EC50 in assay [3] (read-out: EC50) turned out to be 27.8 µM.

As to `O=C(O)CCc1ccc2[nH]c(-c3cccc(Cl)c3Cl)cc2c1`, the values for the Emax in assay [1] (filed as agonist) and in assay [2] were 81.2% and 12.8%, respectively.

On to `O=C(O)CCc1ccc2[nH]c(-c3ccc(Cl)cc3C(F)(F)F)cc2c1`, for which the values for the Emax in assay [1] and in assay [2] were 7.67% and 15.9%, respectively.

Take `O=C(O)CCc1ccc2[nH]c(-c3ccc(Cl)cc3F)cc2c1`: the Emax in assay [1] is 2.18%; in assay [2], 3.64%.

On to `O=C(O)CCc1ccc2[nH]c(-c3c(Cl)cccc3Cl)cc2c1`, for which the Emax is 78.3% in assay [1] (filed as agonist) and 11.5% in assay [2].

Consider `Cc1cc(F)ccc1-c1cc2cc(CCC(=O)O)ccc2n1C`, for which the Emax came to 16.9% in assay [1] and 6.32% in assay [2].

`Cc1ccc(Cl)cc1-c1cc2cc(CCC(=O)O)ccc2[nH]1`: the Emax amounted to 35% in assay [1] and 18.3% in assay [2].

`O=C(O)CCc1ccc2[nH]c(-c3cc(Cl)ccc3Cl)cc2c1`: the Emax in assay [1] is 22.8%; in assay [2], 2.69%.

As for `Cc1ccc(C)c(-c2cc3cc(CCC(=O)O)ccc3n2C)c1`, the figures for the Emax in assay [1] and in assay [2] were 20.3% and 0.01%, respectively.

These data come from ChEMBL document CHEMBL4808171, “Structure-Activity Relationship Study and Biological Evaluation of 2-(Disubstituted phenyl)-indole-5-propanoic Acid Derivatives as GPR40 Full Agonists” (J Med Chem, 2021).
